Measurements as given in patent publication US4952560A, “Ointment base” (Takeda Chemical Industries, Ltd., priority 1984, dated 1990).
Structures can show the parent of a compound that is named as a salt.

Tested on: Pressor reaction (norepinephirine)
Assay: Pressor reaction inhibiting effect of prazosin hydrochloride-containing preparation (Test Example 2)
Assay type: in vivo, male SD rats
Conditions: oral, 20 mg/kg once daily, 3 days; 24 h after last dose; norepinephirine 3 μg/kg i.v.; control 48.6 ± 1.2; * significant difference from control (risk factor 5%)
Method: (B) A suspension of prazosin hydrochloride in 1% gum arabic suspension was orally administered.
The dosage for both treatment groups was 20 mg/kg once daily and the treatment was carried out for 3 consecutive days. Twenty-four hours after the last dosing, 3 μg/kg of norepinephirine was intravenously administered under pentobarbital sodium anesthesia (dosage 40 mg/kg; intraperitoneal) and the resulting pressor reaction was compared with that in the untreated control group.

`COc1cc2nc(N3CCN(C(=O)c4ccco4)CC3)nc(N)c2cc1OC` [prazosin hydrochloride] was tested. Which Pressor reaction did it give?
The Pressor reaction was 34.9 ± 2.2 mmHg.
